Data as given in ChEMBL document CHEMBL1150544, “C-3-N-acyl analogs of 9(R)-dihydrotaxol: synthesis and structure activity relationships” (Bioorg Med Chem Lett, 1994).
In brackets after ≈: the same amount, converted by molar mass.

Experiments:
A549 = assay: In vitro cytotoxicity against A549-human lung carcinoma cells.; assay type: functional, cell-based
[1] = Antitumor activity relative to taxol.; assay type: functional
P388 = assay: In vitro cytotoxicity against P388-mouse leukemia cells.; assay type: functional, cell-based
B16-F10 = assay: In vitro cytotoxicity against B16F10-mouse melanoma cells.; assay type: functional, cell-based
HT-29 = assay: In vitro cytotoxicity against HT29-human colon adenocarcinoma cells.; assay type: functional, cell-based

Compound | IC50 (A549) | Ratio [1] | IC50 (P388) | IC50 (B16-F10) | IC50 (HT-29)
CC(=O)O[C@@H]1C2=C(C)[C@@H](OC(=O)[C@H](O)[C@@H](NC(=O)OC(C)(C)C)c3ccccc3)C[C@@](O)([C@@H](OC(=O)c3ccccc3)[C@@H]3[C@]4(OC(C)=O)CO[C@@H]4C[C@H](O)[C@@]3(C)[C@H]1O)C2(C)C | 0.0003 µg/mL (≈ 0.000352 µM) | 0.87 | – | – | –
CC(=O)O[C@@H]1C2=C(C)[C@@H](OC(=O)[C@H](O)[C@@H](NC(=O)c3ccco3)c3ccccc3)C[C@@](O)([C@@H](OC(=O)c3ccccc3)[C@@H]3[C@]4(OC(C)=O)CO[C@@H]4C[C@H](O)[C@@]3(C)[C@H]1O)C2(C)C | 0.0072 µg/mL (≈ 0.00851 µM) | 0.73 | 0.034 µg/mL (≈ 0.0402 µM) | 0.012 µg/mL (≈ 0.0142 µM) | 0.0041 µg/mL (≈ 0.00485 µM)
CC(=O)O[C@@H]1C2=C(C)[C@@H](OC(=O)[C@H](O)[C@@H](NC(=O)OCC(C)C)c3ccccc3)C[C@@](O)([C@@H](OC(=O)c3ccccc3)[C@@H]3[C@]4(OC(C)=O)CO[C@@H]4C[C@H](O)[C@@]3(C)[C@H]1O)C2(C)C | 0.0043 µg/mL (≈ 0.00505 µM) | 1.03 | 0.028 µg/mL (≈ 0.0329 µM) | 0.0069 µg/mL (≈ 0.0081 µM) | 0.0023 µg/mL (≈ 0.0027 µM)
CC(=O)O[C@@H]1C2=C(C)[C@@H](OC(=O)[C@H](O)[C@@H](NC(=O)c3ccc(C)cc3)c3ccccc3)C[C@@](O)([C@@H](OC(=O)c3ccccc3)[C@@H]3[C@]4(OC(C)=O)CO[C@@H]4C[C@H](O)[C@@]3(C)[C@H]1O)C2(C)C | 0.043 µg/mL (≈ 0.0494 µM) | 0.75 | 0.063 µg/mL (≈ 0.0724 µM) | 0.025 µg/mL (≈ 0.0287 µM) | 0.012 µg/mL (≈ 0.0138 µM)
CC(=O)O[C@@H]1C2=C(C)[C@@H](OC(=O)[C@H](O)[C@@H](NC(=O)OC(C)C)c3ccccc3)C[C@@](O)([C@@H](OC(=O)c3ccccc3)[C@@H]3[C@]4(OC(C)=O)CO[C@@H]4C[C@H](O)[C@@]3(C)[C@H]1O)C2(C)C | 0.0012 µg/mL (≈ 0.00143 µM) | 0.75 | 0.0092 µg/mL (≈ 0.011 µM) | 0.0022 µg/mL (≈ 0.00263 µM) | 0.0008 µg/mL (≈ 0.000955 µM)
CC(=O)O[C@H]1C(=O)[C@@]2(C)[C@H]([C@H](OC(=O)c3ccccc3)[C@]3(O)C[C@H](OC(=O)[C@H](O)[C@@H](NC(=O)c4ccccc4)c4ccccc4)C(C)=C1C3(C)C)[C@]1(OC(C)=O)CO[C@@H]1C[C@@H]2O [PACLITAXEL] | – | – | 0.046 µg/mL (≈ 0.0539 µM) | 0.0041 µg/mL (≈ 0.0048 µM) | 0.0024 µg/mL (≈ 0.00281 µM)
CC(=O)O[C@@H]1C2=C(C)[C@@H](OC(=O)[C@H](O)[C@@H](NC(=O)OCc3ccccc3)c3ccccc3)C[C@@](O)([C@@H](OC(=O)c3ccccc3)[C@@H]3[C@]4(OC(C)=O)CO[C@@H]4C[C@H](O)[C@@]3(C)[C@H]1O)C2(C)C | 0.031 µg/mL (≈ 0.035 µM) | – | 0.057 µg/mL (≈ 0.0643 µM) | 0.044 µg/mL (≈ 0.0497 µM) | 0.012 µg/mL (≈ 0.0135 µM)
CC(=O)O[C@@H]1C2=C(C)[C@@H](OC(=O)[C@H](O)[C@@H](NC(=O)c3ccc(O)cc3)c3ccccc3)C[C@@](O)([C@@H](OC(=O)c3ccccc3)[C@@H]3[C@]4(OC(C)=O)CO[C@@H]4C[C@H](O)[C@@]3(C)[C@H]1O)C2(C)C | > 0.1 µg/mL | 1.07 | > 0.1 µg/mL | > 0.1 µg/mL | 0.067 µg/mL (≈ 0.0768 µM)
CCC(C)(C)OC(=O)N[C@@H](c1ccccc1)[C@@H](O)C(=O)O[C@H]1C[C@@]2(O)[C@@H](OC(=O)c3ccccc3)[C@@H]3[C@]4(OC(C)=O)CO[C@@H]4C[C@H](O)[C@@]3(C)[C@@H](O)[C@H](OC(C)=O)C(=C1C)C2(C)C | 0.001 µg/mL (≈ 0.00115 µM) | 0.73 | 0.0046 µg/mL (≈ 0.00531 µM) | 0.0003 µg/mL (≈ 0.000346 µM) | 0.00067 µg/mL (≈ 0.000774 µM)
CC(=O)O[C@@H]1C2=C(C)[C@@H](OC(=O)[C@H](O)[C@@H](NC(=O)c3ccc(OCc4ccccc4)cc3)c3ccccc3)C[C@@](O)([C@@H](OC(=O)c3ccccc3)[C@@H]3[C@]4(OC(C)=O)CO[C@@H]4C[C@H](O)[C@@]3(C)[C@H]1O)C2(C)C | 0.019 µg/mL (≈ 0.0197 µM) | 0.76 | 0.053 µg/mL (≈ 0.0551 µM) | 0.025 µg/mL (≈ 0.026 µM) | 0.008 µg/mL (≈ 0.00832 µM)
CC(=O)O[C@@H]1C2=C(C)[C@@H](OC(=O)[C@H](O)[C@@H](NC(=O)NC(C)(C)C)c3ccccc3)C[C@@](O)([C@@H](OC(=O)c3ccccc3)[C@@H]3[C@]4(OC(C)=O)CO[C@@H]4C[C@H](O)[C@@]3(C)[C@H]1O)C2(C)C | 0.014 µg/mL (≈ 0.0165 µM) | 1.06 | 0.017 µg/mL (≈ 0.02 µM) | 0.0046 µg/mL (≈ 0.00541 µM) | 0.0056 µg/mL (≈ 0.00658 µM)
CC(=O)O[C@@H]1C2=C(C)[C@@H](OC(=O)[C@H](O)[C@@H](NC(=O)CC(C)(C)C)c3ccccc3)C[C@@](O)([C@@H](OC(=O)c3ccccc3)[C@@H]3[C@]4(OC(C)=O)CO[C@@H]4C[C@H](O)[C@@]3(C)[C@H]1O)C2(C)C | 0.027 µg/mL (≈ 0.0318 µM) | 1.03 | 0.052 µg/mL (≈ 0.0612 µM) | 0.0056 µg/mL (≈ 0.00659 µM) | 0.009 µg/mL (≈ 0.0106 µM)
CC(=O)O[C@@H]1C2=C(C)[C@@H](OC(=O)[C@H](O)[C@@H](NC(=O)OC34CC5CC(CC(C5)C3)C4)c3ccccc3)C[C@@](O)([C@@H](OC(=O)c3ccccc3)[C@@H]3[C@]4(OC(C)=O)CO[C@@H]4C[C@H](O)[C@@]3(C)[C@H]1O)C2(C)C | 0.0043 µg/mL (≈ 0.00462 µM) | 1.54 | 0.01 µg/mL (≈ 0.0108 µM) | 0.0048 µg/mL (≈ 0.00516 µM) | 0.0028 µg/mL (≈ 0.00301 µM)
CC(=O)O[C@@H]1C2=C(C)[C@@H](OC(=O)[C@H](O)[C@@H](NC(=O)C(C)(C)C)c3ccccc3)C[C@@](O)([C@@H](OC(=O)c3ccccc3)[C@@H]3[C@]4(OC(C)=O)CO[C@@H]4C[C@H](O)[C@@]3(C)[C@H]1O)C2(C)C | 0.11 µg/mL (≈ 0.132 µM) | 2.36 | 0.083 µg/mL (≈ 0.0993 µM) | 0.035 µg/mL (≈ 0.0419 µM) | < 0.01 µg/mL
CC(=O)O[C@@H]1C2=C(C)[C@@H](OC(=O)[C@H](O)[C@@H](NC(=O)OCC(C)(C)C)c3ccccc3)C[C@@](O)([C@@H](OC(=O)c3ccccc3)[C@@H]3[C@]4(OC(C)=O)CO[C@@H]4C[C@H](O)[C@@]3(C)[C@H]1O)C2(C)C | 0.00065 µg/mL (≈ 0.000751 µM) | 0.82 | 0.019 µg/mL (≈ 0.0219 µM) | 0.0074 µg/mL (≈ 0.00855 µM) | 0.0015 µg/mL (≈ 0.00173 µM)
CCOC(=O)N[C@@H](c1ccccc1)[C@@H](O)C(=O)O[C@H]1C[C@@]2(O)[C@@H](OC(=O)c3ccccc3)[C@@H]3[C@]4(OC(C)=O)CO[C@@H]4C[C@H](O)[C@@]3(C)[C@@H](O)[C@H](OC(C)=O)C(=C1C)C2(C)C | 0.0057 µg/mL (≈ 0.00692 µM) | 0.82 | 0.043 µg/mL (≈ 0.0522 µM) | 0.018 µg/mL (≈ 0.0218 µM) | 0.005 µg/mL (≈ 0.00607 µM)
CC(=O)N[C@@H](c1ccccc1)[C@@H](O)C(=O)O[C@H]1C[C@@]2(O)[C@@H](OC(=O)c3ccccc3)[C@@H]3[C@]4(OC(C)=O)CO[C@@H]4C[C@H](O)[C@@]3(C)[C@@H](O)[C@H](OC(C)=O)C(=C1C)C2(C)C | 2.1 µg/mL (≈ 2.65 µM) | 3.17 | 2.02 µg/mL (≈ 2.54 µM) | 1.1 µg/mL (≈ 1.39 µM) | 0.27 µg/mL (≈ 0.34 µM)
